The test system of data set [1] is human mixed lymphocyte reaction (MLR). Nature of the data set: human mixed lymphocyte reaction (MLR) assay. It is filed as cell-based. The note with it: Table 1. How it is done:
The immunosuppressant activity of the compounds of the present invention was determined using the human mixed lymphocyte reaction (MLR) assay described by Kino, T. et al., in Transplantation Proceedings, XIX(5):36-39, Suppl. 6 (1987), hereby incorporated by reference.

Data set [2] can be described thus: in vivo. Details: species or system Lewis rats. The note with it: rat, 5 mg/kg. On the procedure:
In Vivo Assay of Biological Activity Whole blood concetration in the Rat.
Lewis rats (obtained from Charles River, Wilmington, Mass.), weighing 225-250 grams, were acclimated for one week in a AAALAC approved facility. All animals were fasted overnight prior to dosing and throughout the study period but were permitted free access to water. Groups of animals were given FK-506 or Example 14 at a dose of 5 mg/kg. Drugs were given in a 2 ml/kg volume of 10% ethanol, 40% propylene glycol and 2% cremophore in 5% dextrose solution for both oral (p.o.) and intraperitoneal (i.p.) administration, and in a 1 ml/kg volume of the same vehicle without cremophor for intravenous (i.v.) dosing. Blood samples were collected from the tail vein in heparinized tubes at selected time points 0.25, 2.0, and 4.0 hours after dosing.
Drugs were separated from the hemolyzed whole blood contaminants utilizing liquid-liquid extraction with ethyl acetate:hexane (1:1 by volume). Samples were centrifuged at 1200 x g for 10 minutes (4° C.) and a constant volume of the organic layer was transferred to a conical centrifuge tube and evaporated to dryness with a gentle stream of dry air over low heat (~35° C.). The samples were reconstituted with 40% (v/v) acetonitrile in water with vortexing. The compounds of interest were separated from the co-extracted components by a 5 cm×4.6 mm, 3 μm Spherisorb ODS-2 column (Regis, Morton Grove, Ill.) with an acetonitrile:methanol: 0.1% trifluoroacetic acid/0.01 M tetramethylammonium perchlorate mixture (45:5:50 by volume for FK506, 40:5:55 for analogue Example 14) at a flow rate of 1.0 ml/min with UV detection at 205 nm. The temperature of the HPLC column was maintained at 70° C.
The concentration of each sample in whole blood was calculated by a least squares linear regression analysis of the peak area compared to spiked rat blood standards.

From patent US6121257A, “Sulfamate containing macrocyclic immunomodulators” (Abbott Laboratories, priority 1999, dated 2000) come the findings set out here.

As a reminder, the IC50 is the midpoint of a concentration-inhibition curve. Low readings indicate higher potency, high ones lower potency. As for `CC[C@@H]1/C=C(\C)C[C@H](C)C[C@H](OC)[C@H]2O[C@@](O)(C(=O)C(=O)N3CCCC[C@H]3C(=O)O[C@H](/C(C)=C/[C@@H]3CC[C@@H](OS(=O)(=O)NC(=O)OCc4ccccn4)[C@H](OC)C3)[C@H](C)[C@@H](O)CC1=O)[C@H](C)C[C@@H]2OC` [Example 10, (1R,9S,12S.13R,14S,17R,21S,23S,24R,25S,27R)-17-ethyl-1,14-dihydroxy-23,25-dimethoxy-12-((E)-2-[(1R,3R,4R)-3-methoxy-4-[({[(2-pyridinylmethoxy)carbonyl]amino}sulfonyl)oxy]cyclohexyl]-1-methylethenyl)-13,19,21,27-tetramethyl-2,3,10,16-tetraoxo-11,28-dioxa-4-azatricyclo[22.3.1.0^4,9]octacos-18-ene], the midpoint of inhibition in data set [1], the IC50, lay at 0.16 nM. That is a sub-nanomolar value.

For `CC[C@@H]1/C=C(\C)C[C@H](C)C[C@H](OC)[C@H]2O[C@@](O)(C(=O)C(=O)N3CCCC[C@H]3C(=O)O[C@H](/C(C)=C/[C@@H]3CC[C@@H](OS(=O)(=O)NC(=O)OCc4ccc([N+](=O)[O-])cc4)[C@H](OC)C3)[C@H](C)[C@@H](O)CC1=O)[C@H](C)C[C@@H]2OC` [Example 11, (1R,9S,12S,13R,14S,17R,21S,23S,24R,25S,27R)-17-ethyl-1,14-dihydroxy-23,25-dimethoxy-12-[(E)-2-((1R,3R,4R)-3-methoxy-4-{[({[(4-nitrobenzyl)oxy]carbonyl}amino)sulfonyl]oxy}cyclohexyl)-1-methylethenyl]-13,19,21,27-tetramethyl-2,3,10,16-tetraoxo-11,28-dioxa-4-azatricyclo[22.3.1.0^4,9]octacos-18-ene], in data set [1], half-maximal inhibition (IC50) was put at 6.68 nM.

In data set [1], `CC[C@@H]1/C=C(\C)C[C@H](C)C[C@H](OC)[C@H]2O[C@@](O)(C(=O)C(=O)N3CCCC[C@H]3C(=O)O[C@H](/C(C)=C/[C@@H]3CC[C@@H](OS(=O)(=O)NC(=O)O[C@@H]4C[C@H](C)CC[C@H]4C(C)C)[C@H](OC)C3)[C@H](C)[C@@H](O)CC1=O)[C@H](C)C[C@@H]2OC` [Example 12] came in with an IC50 of 24.5 nM.

Consider `CC[C@@H]1/C=C(\C)C[C@H](C)C[C@H](OC)[C@H]2O[C@@](O)(C(=O)C(=O)N3CCCC[C@H]3C(=O)O[C@H](/C(C)=C/[C@@H]3CC[C@@H](OS(=O)(=O)NC(=O)OCC45CC6CC(CC(C6)C4)C5)[C@H](OC)C3)[C@H](C)[C@@H](O)CC1=O)[C@H](C)C[C@@H]2OC` [Example 13, (1R,9S,12S,13R,14S,17R,21S,23S,24R,25S,27R)-12-((E)-2-{(1R,3R,4R)-4-[({[(1-adamantylmethoxy)carbonyl]amino}sulfonyl)oxy]-3-methoxycyclohexyl}-1-methylethenyl)-17-ethyl-1,14-dihydroxy-23,25-dimethoxy-13,19,21,27-tetramethyl-2,3,10,16-tetraoxo-11,28-dioxa-4-azatricyclo[22.3.1.0^4,9]octacos-18-ene], for which the IC50 in data set [1] is 21.6 nM.

On to `CC[C@@H]1/C=C(\C)C[C@H](C)C[C@H](OC)[C@H]2O[C@@](O)(C(=O)C(=O)N3CCCC[C@H]3C(=O)O[C@H](/C(C)=C/[C@@H]3CC[C@@H](OS(N)(=O)=O)[C@H](OC)C3)[C@H](C)[C@@H](O)CC1=O)[C@H](C)C[C@@H]2OC` [Example 14], for which, in data set [1], the midpoint of inhibition, the IC50, lay at 0.82 nM. Moreover, in data set [2], the concentration at 0.25 h came to 1.4 µg/mL, the concentration at 2 h came to 0.05 µg/mL and the “elimination from the blood” value is “rapidly eliminated from the blood after 2 hours”. Further, the “Whole Blood Concentration at 4 hours” value in data set [2] (240 min) stood at 0.00 µg/mL.

In data set [2], `C=CC[C@@H]1/C=C(\C)C[C@H](C)C[C@H](OC)[C@H]2O[C@@](O)(C(=O)C(=O)N3CCCC[C@H]3C(=O)O[C@H](/C(C)=C/[C@@H]3CC[C@@H](O)[C@H](OC)C3)[C@H](C)[C@@H](O)CC1=O)[C@H](C)C[C@@H]2OC` [FK-506, reference compound] returned a concentration at 0.25 h of 1.14 µg/mL, a concentration at 2 h of 0.44 µg/mL and a concentration at 4 h of 0.43 µg/mL.
